Results on eleven compounds are retold here after ChEMBL document CHEMBL3632477 (2015).

Where a SMILES comes first, the peptide text is derived from it. Bridges are numbered along the chain shown (N, C = ends). [ ]: non-standard residue; d: D form. Bip(2'-Et-4'-OMe) = CCc1cc(OC)ccc1-c1ccc(C[C@H](N)C(=O)O)cc1; αMePhe(2,6-F2) = C[C@](N)(Cc1c(F)cccc1F)C(=O)O; Bip = N[C@@H](Cc1ccc(-c2ccccc2)cc1)C(=O)O; αMePhe(2-F) = C[C@](N)(Cc1ccccc1F)C(=O)O; hhPhe = N[C@@H](CCCc1ccccc1)C(=O)O; αMeF = C[C@](N)(Cc1ccccc1)C(=O)O; Pen = CC(C)(S)[C@H](N)C(=O)O; Aib = CC(C)(N)C(=O)O

Chain of Glucagon-like peptide 1 receptor (P43220 whole entry): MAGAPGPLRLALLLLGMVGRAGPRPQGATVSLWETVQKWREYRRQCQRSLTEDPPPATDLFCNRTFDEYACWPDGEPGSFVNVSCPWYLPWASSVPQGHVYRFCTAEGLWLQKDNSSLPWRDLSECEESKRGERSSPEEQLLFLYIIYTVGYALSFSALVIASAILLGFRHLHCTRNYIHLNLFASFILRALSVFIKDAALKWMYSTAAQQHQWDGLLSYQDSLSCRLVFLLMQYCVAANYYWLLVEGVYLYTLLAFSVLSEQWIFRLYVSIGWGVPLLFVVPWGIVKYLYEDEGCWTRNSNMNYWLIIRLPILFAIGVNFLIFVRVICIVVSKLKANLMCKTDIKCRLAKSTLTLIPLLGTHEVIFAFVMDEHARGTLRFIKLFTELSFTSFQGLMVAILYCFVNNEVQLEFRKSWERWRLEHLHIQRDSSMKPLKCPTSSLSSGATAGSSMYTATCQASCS

This experiment concerns the target Glucagon-like peptide 1 receptor (Homo sapiens, UniProt P43220). Briefly: Agonist activity at human GLP-1R expressed in CHO-K1 cells assessed as increase in cAMP level incubated for 30 mins. Type of experiment: functional, cell-based. Background: Cyclic AMP is a second messenger, typically raised through Gs and lowered through Gi signalling.
As usually defined, the EC50 is the concentration at which the effect is half-maximal. Consider `CCc1cc(OC)ccc1-c1ccc(C[C@H](NC(=O)[C@H](CC(=O)O)NC(=O)[C@H](CS)NC(=O)[C@@H](NC(=O)[C@](C)(Cc2ccccc2F)NC(=O)[C@@H](NC(=O)CNC(=O)[C@H](CCC(=O)O)NC(=O)C(C)(C)NC(=O)[C@@H](N)Cc2cnc[nH]2)[C@@H](C)O)[C@@H](C)O)C(=O)N[C@@H](CCCc2ccccc2)C(=O)N[C@H](CS)C(N)=O)cc1`, for which the EC50 is 1.15 µM.
Under `CCc1cc(OC)ccc1-c1ccc(C[C@@H]2NC(=O)[C@H](CC(=O)O)NC(=O)[C@H](CO)NC(=O)[C@H]([C@@H](C)O)NC(=O)[C@](C)(Cc3c(F)cccc3F)NC(=O)[C@H]([C@@H](C)O)NC(=O)CNC(=O)[C@H](CCC(=O)O)NC(=O)[C@@H]3CCCN3C(=O)[C@H](Cc3cnc[nH]3)NC(=O)[C@H](CO)NC(=O)[C@H](C(C)(C)S)NC(=O)[C@H](C)NC(=O)CNC(=O)CNC(=O)CNC(=O)[C@H](C)NC(=O)[C@H](C)NC(=O)CNC(=O)CNC(=O)[C@H](C(C)(C)S)NC(=O)[C@H](CCCc3ccccc3)NC2=O)cc1` (cyclo(AAGGGA[Pen]SHPEGT[αMePhe(2,6-F2)]TSD[Bip(2'-Et-4'-OMe)][hhPhe][Pen]GG)) stands 2 µM; under `CCc1cc(OC)ccc1-c1ccc(C[C@H](NC(=O)[C@H](CS)NC(=O)[C@H](CO)NC(=O)[C@@H](NC(=O)[C@](C)(Cc2ccccc2F)NC(=O)[C@H](CS)NC(=O)CNC(=O)[C@H](CCC(=O)O)NC(=O)C(C)(C)NC(=O)[C@@H](N)Cc2cnc[nH]2)[C@@H](C)O)C(=O)N[C@@H](CCCc2ccccc2)C(N)=O)cc1` (H-H[Aib]EGC[αMePhe(2-F)]TSC[Bip(2'-Et-4'-OMe)][hhPhe]-NH2), 0.85 µM; under `CCc1cc(OC)ccc1-c1ccc(C[C@H](NC(=O)[C@H](CC(=O)O)NC(=O)[C@H](CO)NC(=O)[C@@H](NC(=O)[C@](C)(Cc2ccccc2F)NC(=O)[C@@H](NC(=O)CNC(=O)[C@H](CCC(=O)O)NC(=O)[C@@H]2CCCN2C(=O)[C@@H](N)Cc2cnc[nH]2)[C@@H](C)O)[C@@H](C)O)C(=O)N[C@@H](CCCc2ccccc2)C(=O)N[C@H]2CSSC[C@@H](C(=O)N[C@@H](CO)C(=O)O)NC(=O)[C@H](C)NC(=O)CNC(=O)CNC(=O)CNC(=O)[C@H](C)NC(=O)[C@H](C)NC(=O)CNC(=O)CNC2=O)cc1` (H-HPEGT[αMePhe(2-F)]TSD[Bip(2'-Et-4'-OMe)][hhPhe]CGGAAGGGACS-OH; disulfide 12-21), 0.001 µM.
Then `CCc1cc(OC)ccc1-c1ccc(C[C@H](NC(=O)[C@H](CC(=O)O)NC(=O)[C@H](CO)NC(=O)[C@@H](NC(=O)[C@](C)(Cc2c(F)cccc2F)NC(=O)[C@@H](NC(=O)CNC(=O)[C@H](CCC(=O)O)NC(=O)[C@@H]2CCCN2C(=O)[C@@H](N)Cc2cnc[nH]2)[C@@H](C)O)[C@@H](C)O)C(=O)N[C@@H](CCCc2ccccc2)C(=O)N[C@H](C(=O)NCC(=O)NCC(=O)N[C@@H](C)C(=O)N[C@@H](C)C(=O)NCC(=O)NCC(=O)NCC(=O)N[C@@H](C)C(=O)N[C@H](C(=O)N[C@@H](CO)C(=O)O)C(C)(C)S)C(C)(C)S)cc1` (H-HPEGT[αMePhe(2,6-F2)]TSD[Bip(2'-Et-4'-OMe)][hhPhe][Pen]GGAAGGGA[Pen]S-OH), with 0.0025 µM; and `CC(C)C[C@@H]1NC(=O)[C@H](Cc2ccccc2)NC(=O)[C@H](CC(N)=O)NC(=O)[C@H](CCCNC(=N)N)NC(=O)[C@H](CCCCN)NC(=O)[C@@H]2CSSC[C@@H](C(N)=O)NC(=O)[C@H](CSSC[C@H](NC(=O)[C@@H](N)CO)C(=O)N[C@@H](CO)C(=O)N2)NC1=O` (H-SCSCKRNFLCC-NH2; disulfide 2-10, 4-11), with 0.00047 µM.
Under `CCc1cc(OC)ccc1-c1ccc(C[C@@H]2NC(=O)[C@H](CC(=O)O)NC(=O)[C@H](CO)NC(=O)[C@H]([C@@H](C)O)NC(=O)[C@](C)(Cc3c(F)cccc3F)NC(=O)[C@H]([C@@H](C)O)NC(=O)CNC(=O)[C@H](CCC(=O)O)NC(=O)[C@@H]3CCCN3C(=O)[C@H](Cc3cnc[nH]3)NC(=O)[C@H](CO)NC(=O)[C@@H]3CSSC[C@H](NC(=O)[C@H](CCCc4ccccc4)NC2=O)C(=O)NCC(=O)NCC(=O)N[C@@H](C)C(=O)N[C@@H](C)C(=O)NCC(=O)NCC(=O)NCC(=O)N[C@@H](C)C(=O)N3)cc1` (cyclo(AAGGGACSHPEGT[αMePhe(2,6-F2)]TSD[Bip(2'-Et-4'-OMe)][hhPhe]CGG); disulfide 7-20) stands 0.43 µM.
Take `CCc1cc(OC)ccc1-c1ccc(C[C@@H]2NC(=O)[C@H](CC(=O)O)NC(=O)[C@H](CO)NC(=O)[C@H]([C@@H](C)O)NC(=O)[C@](C)(Cc3c(F)cccc3F)NC(=O)[C@H]([C@@H](C)O)NC(=O)CNC(=O)[C@H](CCC(=O)O)NC(=O)[C@@H]3CCCN3C(=O)[C@H](Cc3cnc[nH]3)NC(=O)[C@H](CO)NC(=O)[C@@H]3CSSC[C@H](NC(=O)[C@H](CCCc4ccccc4)NC2=O)C(=O)NCC(=O)N[C@@H](Cc2ccc(-c4ccccc4)cc2)C(=O)N[C@@H](C)C(=O)N[C@@H](C)C(=O)NCC(=O)NCC(=O)NCC(=O)N[C@@H](C)C(=O)N3)cc1` (cyclo(AAGGGACSHPEGT[αMePhe(2,6-F2)]TSD[Bip(2'-Et-4'-OMe)][hhPhe]CG[Bip]); disulfide 7-20): the EC50 was 0.47 µM.
Then `CCc1cc(OC)ccc1-c1ccc(C[C@H](NC(=O)[C@H](CC(=O)O)NC(=O)[C@H](CO)NC(=O)[C@@H](NC(=O)[C@](C)(Cc2ccccc2)NC(=O)[C@@H](NC(=O)CNC(=O)[C@H](CCC(=O)O)NC(=O)[C@@H]2CCCN2C(=O)[C@@H](N)Cc2cnc[nH]2)[C@@H](C)O)[C@@H](C)O)C(=O)N[C@@H](CCCc2ccccc2)C(=O)N[C@H]2CSSC[C@@H](C(=O)N[C@@H](CO)C(=O)O)NC(=O)[C@H](CC(C)C)NC(=O)[C@H](CC(C)C)NC(=O)CNC(=O)[C@H](CC(C)C)NC(=O)[C@H](CC(C)C)NC(=O)[C@H](CC(C)C)NC(=O)CNC(=O)CNC2=O)cc1` (H-HPEGT[αMeF]TSD[Bip(2'-Et-4'-OMe)][hhPhe]CGGLLLGLLCS-OH; disulfide 12-21), with 0.13 µM; and `CCc1cc(OC)ccc1-c1ccc(C[C@@H]2NC(=O)[C@H](CC(=O)O)NC(=O)[C@H](CO)NC(=O)[C@H]([C@@H](C)O)NC(=O)[C@](C)(Cc3c(F)cccc3F)NC(=O)[C@H]([C@@H](C)O)NC(=O)CNC(=O)[C@H](CCC(=O)O)NC(=O)C(C)(C)NC(=O)[C@H](Cc3cnc[nH]3)NC(=O)[C@H](CO)NC(=O)[C@@H]3CSSC[C@H](NC(=O)[C@H](CCCc4ccccc4)NC2=O)C(=O)NCC(=O)NCC(=O)N[C@@H](C)C(=O)N[C@@H](C)C(=O)NCC(=O)NCC(=O)NCC(=O)N[C@@H](C)C(=O)N3)cc1` (cyclo(AAGGGACSH[Aib]EGT[αMePhe(2,6-F2)]TSD[Bip(2'-Et-4'-OMe)][hhPhe]CGG); disulfide 7-20), with 1.4 µM.
Then `CCc1cc(OC)ccc1-c1ccc(C[C@@H]2NC(=O)[C@H](CC(=O)O)NC(=O)[C@H](CO)NC(=O)[C@@H]3CSSC[C@@H](C(=O)O)NC(=O)[C@H](CSSC[C@H](NC(=O)CNC(=O)[C@H](CCC(=O)O)NC(=O)C(C)(C)NC(=O)[C@@H](N)Cc4cnc[nH]4)C(=O)N[C@@](C)(Cc4c(F)cccc4F)C(=O)N3)NC(=O)[C@H](Cc3ccc(-c4ccccc4)cc3)NC(=O)[C@H](CCCc3ccccc3)NC2=O)cc1` (H-H[Aib]EGC[αMePhe(2,6-F2)]CSD[Bip(2'-Et-4'-OMe)][hhPhe][Bip]CC-OH; disulfide 5-13, 7-14), with 7.5 µM.
